Test results reported in US5304474A, “Hydrophobic peptide esters and amides” (Board of Regents, The University of Texas System, priority 1991, dated 1994).

What was measured:
[1] = system: peripheral blood lymphocytes (PBL); test: [3H]Leu-Leu-OMe uptake/binding by lymphocytes; format: in vitro ADME, human
Method: (§1) Human peripheral blood lymphocytes (PBL) were incubated in the presence of [^3 H]labeled Leu-Leu-OMe at 22° C. for varying lengths of time. The incubation mixture was then centrifuged through silicone oil to separate the cells from any unbound or non-internalized [^3 HLeu-Leu-OMe. […] At 37° C., levels of [^3 H]Leu-Leu-OMe accumulation by PBL were increased above those seen at 22° C. (see Table 4).

[2] = system: [^3 H]Leu-Leu-OMe uptake by PBL (facilitated transport); test: Competitive inhibition of [3H]Leu-Leu-OMe uptake; format: cell-based, human
Method: as §1

[3] = system: B6 spleen cells (NK, allospecific cytotoxic T cells); test: Cytotoxic function of B6 spleen cells after incubation; format: cell-based, murine
[4] = system: precursors of activated NK (AcNK); test: Elimination of activated NK-like cells (6 day MLC, lysis of K562); format: cell-based, human
Method: Experiments were also designed to assess the relative sensitivity of NK and CTL to Leu-Leu-OMe. In the studies detailed in FIGS. 8 and 9, cytotoxicity assays were performed over a broad range of E:T ratios and units of lytic activity arising from equal numbers of responding lymphocytes were calculated and compared. […] Only after exposure to greater than 250 micromolar Leu-Leu-OMe were all CTL precursors eliminated.
Non-adherent lymphocytes (2.5×10^6 /ml) were incubated with the indicated concentrations of Leu-Leu-OMe for 15 minutes. Cells were then washed and either placed in mixed lymphocyte culture or assayed for specific lysis of K562 cells (NK). After 6 day MLC, cells were assayed for specific lysis of allogeneic stimulator lymphoblasts (CTL) or K562 (AcNK). Data are expressed as percent of control lytic units (mean+SEM, n=6).
Both values were also higher than the mean concentration of Leu-Leu-OMe required to diminish spontaneous NK lytic activity by 75% (35 micromolar±4 micromolar). […] Thus, only after MLC activation did CTL display a sensitivity to Leu-Leu-OMe toxicity that was equal to that of NK cells.

[5] = system: human umbilical vein endothelial cells; test: 51Cr release toxicity assay
[6] = Activity and appearance of mice post-injection; format: in vivo, C3H/HeJ mice; conditions: 15-30 minutes post-injection, about 1×10^-3 moles per kg tail-vein
Method: Leu-Leu-OMe or Leu-Phe-OMe were suspended in PBS, pH 7.4. Then individual C3H/HeJ mice (25 gram size) were administered by tail-vein injection either 2.5×10^-5 moles (6.5 mg) of Leu-Leu-OMe, 2.5×10^-5 moles (7.1 mg) Leu-Phe-OMe, or an equal volume of the PBS diluent, this dose being about 1×10^-3 moles per kg. […] Subsequent to this quiescent period no difference in activity or appearance in the mice was noted. Two hours post-injection, the mice were sacrificed and their spleen cells were assayed for NK function in a standard 4 hour assay against YAC-1 tumor targets. In all mice, total cell recovery ranged […] spleen cells per animal. […] Thus, Leu-Leu-OMe or Leu-Phe-OMe caused a greater than 75% decrease in splenic lytic activity against YAC-1 tumor targets.

[7] = system: epidermal carcinoma line, HEp-2; test: 51Cr release toxicity assay
[8] = system: nylon wool non-adherent lymphocytes (NAC); test: 51Cr release toxicity assay; format: cell-based, human; conditions: 25 to 50 micromolar
Method: (§2) In some experiments, toxicity of Leu-Leu-OMe for a variety of cell populations was assessed by ^51 Cr release In assays where cells obtained from suspension culture were to be used, cells were labeled with Na2^51 CrO4 (ICN, Plainview, N.Y.) for 60-90 minutes at 37° C. and then washed three times. Cells were then suspended in PBS (2.5×10^6 /ml) and incubated in microtiter plates, 50 microL/well with indicated concentrations of Leu-Leu-OMe for 15 minutes at room temperature. […] Following ^51 Cr labeling, wells were thoroughly washed and varying concentrations of Leu-Leu-OMe added in 50 microL PBS and the plates incubated for 15 minutes at room temperature.
(§3) Following such initial serum-free incubations, 200 microL/well of medium RPMI containing 10% FBS were added and the plates incubated for another 4 hours prior to removal of 100 microliters of supernatant. Radioactivity in the supernatant was measured in an auto-gamma scintillation spectrometer (Packard Instrument Co., Downers Grove, Ill.). The percent specific release was calculated from the formula: [formula] in which maximal release refers to cpm obtained in wells containing 50% lysing agent (American Scientific Products, McGraw Park, Ill.) and spontaneous release refers to cpm released by cells incubated in control medium in the absence of Leu-Leu-OMe or the lysing agent. Only experiments in which spontaneous release was […] were used for subsequent data interpretation.
(§4) In developing the data expressed in FIG. 7, cells (2.5×10^6 /ml) were exposed to the indicated concentrations of Leu-Leu-OMe for 15 minutes at room temperature, then specific ^51 Cr release during the next four hours was assessed. Data for the EBV transformed lines JM.6, SDL-G2, D8-219, and SM.4, respectively, are shown in order from top to bottom.

PBM = test: 51Cr release toxicity assay; format: cell-based, human; conditions: 15 minutes exposure, 4 hour release (FIG. 7)
Method: as §2, §3, §4

[9] = system: natural killer cells (NK); test: NK function: lysis of K562 target cells (51Cr release) after preincubation of lymphocytes with compound
Method: PBM were separated from heparinized venous blood of healthy donors by centrifugation over sodium diatrizoate-Ficoll gradients (Isolymph, Gallard-Schlesinger Chemical Mfg. Corp., Carle Place, N.Y.).
All cell exposures to the amino acids, dipeptides or their methyl esters were carried out by suspending cells in Dulbecco's phosphate buffered saline (PBS) and incubating them at room temperature with the reagent at the indicated concentration and time interval.
Percent of control cytotoxicity was calculated using the formula: [formula]

[10] = 100 micromolar, 15 minutes (FIG. 8)

COC(=O)[C@H](CC(C)C)NC(=O)[C@@H](N)CC(C)C [Leu-Leu-OMe, L-leucyl-L-leucine methyl ester]
Km ([1]; 15 minute incubation at 22° C.): ~100 µM
Vmax of uptake ([1]; 15 minute incubation at 22° C.): approximately 10^-10 moles/minute/10^6 cells
external concentration of near maximal uptake ([1]; 15 minute incubation at 22° C. (FIG. 11)): 250-500 micro-M
competitive inhibition of [3H]Leu-Leu-OMe uptake, in words [2]: competitively inhibited
inhibition at 250 µM ([2]; Homo sapiens, unlabeled compound 250 microM, [3H]Leu-Leu-OMe 10 microM (Table 5)): 72%
NK function of B6 spleen cells ([3]; 100 micro-M): complete loss of NK function
generation of allospecific cytotoxic T cells ([3]; 100 micro-M): only partial reduction of the generation of allospecific cytotoxic T cells
cells with cytotoxic potential that remain ([3]; single treatment with 250 micro-M): < 5%
precursors of activated NK, lytic units [4, 10]: totally eliminated
mean concentration required to diminish lytic activity by 75% ([4]; elimination of precursors of activated NK): 50 ± 5 µM
51Cr release [5]: no significant Leu-Leu-OMe induced ^51 Cr release
subsequent proliferative capacity ([5]; 500 micromolar): had no discernible effect on subsequent proliferative capacity
Leu--Leu--OMe Sensitivity (LD50) ([5]; Endothelial Cells): > 500 micro-M
activity and appearance post-injection [6]: exhibited decreased activity and an apparent increase in sleep
51Cr release [7]: no significant Leu-Leu-OMe induced ^51 Cr release
subsequent proliferative capacity ([7]; 500 micromolar): had no discernible effect on subsequent proliferative capacity
51Cr release [8]: small but significant ^51 Cr release
concentration for maximal achievable 51Cr release (PBM): greater than 100 micromolar
concentration giving detectable 51Cr release (PBM): 25 to 50 µM
NK Function % Specific Lysis K562 ([9]; 12.50 micro-M, Nil 66 (Table 14)): 60%
NK Function % Specific Lysis K562 ([9]; 25.00 micro-M, Nil 66 (Table 14)): 12%
NK Function % Specific Lysis K562 ([9]; 50 micro-M, Nil 40.8 (Table 16)): 1.1%
NK Function % Specific Lysis K562 ([9]; 50.00 micro-M, Nil 66 (Table 14)): 2%
NK Function % Specific Lysis K562 ([9]; 100.00 micro-M, Nil 66 (Table 14)): < 1%
spontaneous NK lytic units [9, 10]: totally eliminated
concentration resulting in loss of K562 target binding and complete depletion of Leu 11b stained cells ([9]; MP-depleted lymphocytes): greater than 50 micromolar
concentration above which no NK function could be detected ([9]; MP-depleted lymphocytes, 15 minutes room temperature (FIG. 4)): greater than 50 micromolar
Leu--Leu--OMe Sensitivity (LD50) ([9]; NK Cells): 35 micro-M
concentration causing maximal depletion of NK ([9]; antibody staining (FIG. 6) and functional studies (FIG. 4)): 100 µM
NK Toxicity (LD50) ([9]; concentration which results in 50% loss of human NK function, PBL 15 minutes at 22° C.): 35 micro-M
concentration in excess of which NK toxic effects are seen ([9]; lymphocytes exposed 15 minutes at room temperature): > 12.5 micro-M
mean concentration required to diminish lytic activity by 75% ([9]; spontaneous NK): 35 µM
